The values that follow are results of earlier work, collected in patent US20140147496A1, “COMPOSITION AND METHOD FOR FERTILITY THERAPY USING NUTRITIONAL SUPPLEMENTS” (FAIRHAVEN HEALTH, LLC, priority 2009, published 2014).

The test system of data set [1] is infertile patients. The conditions noted are these: 60 mg, mean 103 days, 17 infertile patients.
The subject of data set [2] is Infertile men with idiopathic asthenozoospermia. Particulars: oral.
Data set [3] concerns sperm samples.
In data set [4] the test system is idiopathic asthenozoospermic infertile patients. The conditions noted are these: after administration.
The subject of data set [5] is infertile patients. The conditions noted are these: 2 g/day, two month cross-over, excluding outliers.
The test system of data set [6] is patients with idiopathic asthenospermia. The conditions noted are these: 3 g/d.
For data set [7] the test system is unchanged. The conditions noted are these: between baseline, 12 week, or 24 weeks.
The test system of data set [8] is Patients with inflammatory abacterial prostatovesiculoepididymitis (PVE). The conditions noted are these: following a 3-month washout period.

Turning to `COC1=C(OC)C(=O)C(C/C=C(\C)CC/C=C(\C)CC/C=C(\C)CC/C=C(\C)CC/C=C(\C)CC/C=C(\C)CC/C=C(\C)CC/C=C(\C)CC/C=C(\C)CCC=C(C)C)=C(C)C1=O` [Coenzyme Q10], the standard sperm parameters result in data set [1] is “no significant changes”. The fertilization rate entry in data set [1] (p<0.05) is given as “significant improvement”. Besides, the “Coenzyme Q10 levels in seminal plasma and in sperm cells” value in data set [2] (after 6 months of therapy) is listed as “increased significantly”. Moreover, the sperm cell motility result in data set [2] (after 6 months, computer-assisted analysis) is “significant increase”. The motility after incubation entry in data set [3] (samples with initial normal motility, 5 μM or 50 μM, 24 h) is given as “no significant change”. Further, the motility result in data set [3] (sperm samples from 22 asthenospermic men, in vitro, 50 μM) was “significant increases in motility”. In data set [4], the “Coenzyme Q10 in seminal plasma and in sperm cells” value is on record as “significant increase”; the sperm motility result was “improvement in sperm motility”.
With `C[N+](C)(C)C[C@H](O)CC(=O)[O-]` [L-carnitine], the “semen quality over placebo (concentration, total and forward motility)” value in data set [5] is on record as “statistically significant improvement”.
In the case of `CC(=O)O[C@H](CC(=O)[O-])C[N+](C)(C)C` [LAC, L-acetyl-carnitine], the sperm cell motility result in data set [6] was “increased”.
Turning to `C[N+](C)(C)CC(O)CC(=O)[O-]` (stereo not shown) [carnitine], the “motility or total motile sperm counts” value in data set [7] is listed as “no significant differences”. Moreover, in data set [8], the “production of reactive oxygen species” value is “highest reduction”; the “sperm motility and viability” value was “increased”.
